Reference: patent publication US20240294570A1, “ENZYMATICALLY FORMING INTRANUCLEAR PEPTIDE ASSEMBLIES FOR SELECTIVELY KILLING INDUCED PLURIPOTENT STEM CELLS” (BRANDEIS UNIVERSITY, priority 2021, published 2024)
Non-standard residues stand in square brackets, D forms with d. Residues, ends and D or L forms follow the SMILES beside them. *: point of attachment. pY = N[C@@H](Cc1ccc(OP(=O)(O)O)cc1)C(=O)O; NBD = O=[N+]([O-])c1ccc(*)c2nonc12; βAla = NCCC(=O)O

Columns and labels:
ALP = assay: Dephosphorylation rate measurement (LC-MS)
Procedure: The reaction mixtures were analyzed with LC-MS.
Thus, the conversion of the phosphopentapeptides to their corresponding peptides was examined over time.

iPSCs = assay: Cell viability of iPSCs (trypan blue); assay type: cell-based, human; settings: 400 μM, 2 h
Procedure: (§1) Cell Culture: Human induced pluripotent stem cell line A21 was generated from human normal dermal fibroblasts by using the StemRNA™-NM Reprogramming kit (Stemgent, Cat #00-0076). hiPSCs were routinely cultured and passaged on 6-well plates coated with 0.25 μg/cm^2 iMatrix-511 (Recombinant Laminin-511) (ReproCell) with NutriStem XF/FFTM medium (Biological Industries). HS-5 cell line and HEK293 cell line were purchased from American Type Culture Collection (ATCC, USA). HS-5 cells were cultured in Dulbecco's Modified Eagle Medium (DMEM) supplemented with 10% fetal bovine serum (FBS), 100 U/mL penicillin and 100 μg/mL streptomycin. HEK293 cells were cultured in Minimal Essential Medium (MEM) supplemented with 10% fetal bovine serum (FBS), 100 U/mL penicillin and 100 μg/mL streptomycin. All cells were maintained at 37° C. in a humidified atmosphere of 5% CO2.
(§2) Cell Viability of iPSC's: iPSCs were plated in 6-well plates and incubated for 24 to 48 hours, then media were replaced with fresh one (2 ml) supplemented with PBS (control) 5 (200 μM, 300 μM, and 400 μM), 7 (400 μM) or 9 (400 μM), and incubated for 2 hours. Media were removed and cells were rinsed with PBS once, fresh normal cultural media were added and incubated for 30 min. All cells were collected and stained with trypan blue, live cells were counted using Cellometer Auto 2000 (Nexcelom Bioscience). Data were obtained by from three independent wells (n=3).

[1] = Cell viability of iPSCs (trypan blue); assay type: cell-based, human; settings: human, human induced pluripotent stem cells (iPSC line A21), 2 hours
Procedure: as §1, §2

[2] = Critical micelle concentration (CMC) measurement with pyrene probe; assay type: physicochemical
Procedure: Critical Micelle Concentration ((MC) Measurement: The CMCs were determined using pyrene as the fluorescent probe. Different concentrations of compounds were prepared in pyrene-saturate solutions. The fluorescence spectra of pyrene solutions with different concentration compounds were obtained. The intensity ratio of 378 nm/393 nm (I378/I393) was determined by a Synergy H1 hybrid multi-mode microplate reader. Plot I378/I393 against the concentrations of compounds. The concentration at the turning point is the CMC.

HEK293 cells = assay: Cytotoxicity against HEK293 cells (MTT assay); assay type: cell-based; settings: 400 μM, 2 h
Procedure: as §1
(§3) Cell Viability of Differentiated Cells: Cytotoxicity against HS-5 cells and HEK293 cells was determined by using MTT assay. […] The absorbance of each well at 595 nm was measured by a DTX880 Multimode Detector. The results were calculated as cell viability percentage relative to untreated cells. […]

[3] = Enzymatic self-assembly in vitro, nanostructures by TEM; assay type: physicochemical
Procedure: TEM Sample Preparation: After placing 5 μL samples on 400 mesh copper grids coated with continuous thick carbon film (˜35 nm) which is glowed discharged, we washed the grid with ddH2O and UA (uranyl acetate). The sample loaded grid was stained with the UA. The residual UA was removed by filter paper and then dried in air. TEM images were obtained with Morgagni 268 transmission electron microscope.
After obtaining all the precursors, their behaviors for EISA were evaluated in vitro using transmission electron microscopes (TEM) to examine the nanostructures formed before and after the ALP catalyzed dephosphorylation of precursors 5, 7, and 9. […] The critical micelle concentration (CMC) of 5 is 86.1 μM. […] The CMC of 6 is 8.1 μM. Unlike the case of 5, dephosphorylation of 7 or 9 at 400 μM by ALP (0.5 U/mL) produces nanofibers with the diameters of 6±2 nm or 9±2 nm, whose CMC is 87.4 μM or 25.8 μM, respectively.
A key requirement for selectively eliminating iPSCs by EISA is that the L-peptide nanoribbons only form on and in iPSCs, which overexpress ALP, but not on and in the differentiated cells that express normal level of ALP. That is, L-peptide nanoribbons should only rapidly form at high level of ALP, but not at normal level of ALP. […] Thus, after assessing the level of ALP expression in iPSCs, it should be possible to optimizing the initial concentration of a peptide and the time of dephosphorylation, to promote EISA that selectively targets iPSCs.

iPS-derived HPCs = assay: Cell viability of iPS-derived HPCs (trypan blue); assay type: cell-based, human; settings: 400 μM, 2 h
Procedure: (§4) Differentiation of Human iPSC to iPS-derived Hematopoietic Progenitor Cells (HPC's): iPSCs were differentiated into hematopoietic progenitor cells (HPCs) by using a 3D-bioreactor platform^1. HPCs released from iPSC-spheroids after 9-10 days' differentiation were collected and characterized. Hematopoietic lineage specific marker expression of harvested HPCs were analyzed by flow cytometry. About 97.6% of these HPCs were CD31+CD43+ double positive, but only about 13% are OCT4+, indicative of commitment to hematopoietic lineage. These iPS-derived HPCs were used for 5 (400 μM, 2 hr) cytotoxicity assay.
(§5) Cell Viability of iPS-derived HPC's: iPS-derived HPCs were plated in 12-well plates and incubated overnight, then media were replaced with fresh one (2 ml) supplemented with PBS (control) 5 (400 μM) incubated for 2 hours. All cells were collected and stained with trypan blue, live cells were counted using Cellometer Auto 2000 (Nexcelom Bioscience). Data were obtained by from three independent wells (n=3).

[4] = Cell viability of iPS-derived HPCs (trypan blue); assay type: cell-based, human; settings: human, iPS-derived hematopoietic progenitor cells (HPCs), read-out: viability of the HPC cells
Procedure: as §4, §5

HS-5 cells = assay: Cytotoxicity against HS-5 cells (MTT assay); assay type: cell-based, human; settings: 400 μM, 2 h
Procedure: as §1, §3

[5] = Degradation in HS-5 cell lysate (LC-MS); settings: 200 μM, 2 h of incubation

CC(C)C[C@H](NC(=O)CCNc1ccc([N+](=O)[O-])c2nonc12)C(=O)N[C@@H](CC(C)C)C(=O)N[C@@H](CC(C)C)C(=O)N[C@@H](CC(C)C)C(=O)N[C@@H](Cc1ccc(OP(=O)(O)O)cc1)C(=O)O [compound 5, NBD-βA-LLLLpY] ({NBD-βAla}-LLLL[pY]-OH)
fraction hydrolyzed by ALP (ALP; 100 μM, 0.1 U/mL ALP, time point 40 minutes): about 24% | final dephosphorylation ratio (ALP; 400 μM, 0.1 U/mL ALP): 69.1% | dephosphorylation ratio (ALP; 400 μM, 0.5 U/mL ALP, after 5 hours of incubation): 93.8% | fraction turned into 6 (ALP; 0.1 U/mL ALP, after 1 hour of incubation): 32.7% | fraction turned into 6 (ALP; 0.1 U/mL ALP, after 2 hours of incubation): 49.6% | half-life at 100 μM (ALP; alkaline phosphatase (ALP) in PBS, half-life of dephosphorylation, 100 μM, 0.5 U/mL ALP): 27.3 min | half-life at 200 μM (ALP; alkaline phosphatase (ALP) in PBS, half-life of dephosphorylation, 200 μM, 0.5 U/mL ALP): 21.6 min | half-life at 400 μM (ALP; alkaline phosphatase (ALP) in PBS, half-life of dephosphorylation, 400 μM, 0.1 U/mL ALP): 122 min | half-life at 400 μM (ALP; alkaline phosphatase (ALP) in PBS, half-life of dephosphorylation, 400 μM, 0.5 U/mL ALP): 30.6 min | cell death of iPSCs (FIG. 8A) (iPSCs): 93% | viability at 2 h, 200 µM ([1]; 200 μM): 31.1 ± 3.2% | viability at 2 h, 300 µM ([1]; 300 μM): 18.5 ± 1.5% | viability at 2 h, 400 µM ([1]; 400 μM): 6.96 ± 1.71% | critical micelle concentration (CMC) [2]: 86.1 µM | cytotoxicity towards HEK293 cells (HEK293 cells): innocuous | diameters of nanoparticles ([3]; 200 μM, one-hour treatment by 0.1 U/mL ALP): 404±50 nm | widths of nanoribbons ([3]; 400 μM, ALP 0.5 U/mL, 37° C., 24 h): 74±13 nm | diameter of short nanofibers ([3]; 400 μM, PBS, before ALP): 9±2 nm | cell survival of HPCs (FIG. 8B) (iPS-derived HPCs): 97% | viability at 2 h, 400 µM [4]: 96.8% | cytotoxicity towards HS-5 cells (HS-5 cells): slight cytotoxicity | stability of 5 in HS-5 lysate [5]: All of 5 disappears
